Results as given in the supplement of paper PMC10307832.

Key:
Experiment in all cases: relative viability (nuclei count vs DMSO), 5 days (fraction); higher = more cells survive
XMD13-2 + Olaparib = compound: C1CC1C(=O)NC2=NNC3=C2C=CC(=C3)C4=CC(=CC=C4)C(=O)NC5CC5 [XMD13-2] + O=C(c1cc(Cc2n[nH]c(=O)c3ccccc23)ccc1F)N1CCN(C(=O)C2CC2)CC1 [Olaparib] (partner 8 µM)
In short: (§1)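 Medians of duplicate plates are given as relative viability. That measure is the nuclei count in treated wells divided by the count in vehicle wells. Counts were taken on 4× images of lung cancer cell lines in 1536-well plates, 5 days after pin-tool dosing the day after seeding with one drug alone or a fixed anchor-drug dose plus five library-drug doses (not always all listed) in √10 steps.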

ALW-II-49-7 + Pictilisib = compound: Cc1ccc(C(=O)Nc2cccc(C(F)(F)F)c2)cc1Nc1cncc(C(N)=O)c1 [ALW-II-49-7] + CS(=O)(=O)N1CCN(Cc2cc3nc(-c4cccc5[nH]ncc45)nc(N4CCOCC4)c3s2)CC1 [Pictilisib] (partner 1 µM)
In short: as §1

ALW-II-49-7 + Navitoclax = compound: Cc1ccc(C(=O)Nc2cccc(C(F)(F)F)c2)cc1Nc1cncc(C(N)=O)c1 [ALW-II-49-7] + CC1(C)CCC(c2ccc(Cl)cc2)=C(CN2CCN(c3ccc(C(=O)NS(=O)(=O)c4ccc(N[C@H](CCN5CCOCC5)CSc5ccccc5)c(S(=O)(=O)C(F)(F)F)c4)cc3)CC2)C1 [Navitoclax] (partner 0.5 µM)
In short: as §1

Dasatinib + Luminespib = compound: Cc1nc(Nc2ncc(C(=O)Nc3c(C)cccc3Cl)s2)cc(N2CCN(CCO)CC2)n1 [Dasatinib] + CCNC(=O)c1noc(-c2cc(C(C)C)c(O)cc2O)c1-c1ccc(CN2CCOCC2)cc1 [Luminespib] (partner 0.01 µM)
In short: as §1

Q: UMC-11 was tested. Which relative viability (XMD13-2 + Olaparib; first compound 0.05 µM) did it give?
A: 0.528

Q: What about the relative viability (XMD13-2 + Olaparib; first compound 0.1581 µM) of the same cell line?
A: 0.407

Q: And the relative viability (XMD13-2 + Olaparib; first compound 0.5 µM)?
A: 0.39

Q: And the relative viability (XMD13-2 + Olaparib; first compound 1.581 µM)?
A: 0.364

Q: And the relative viability (XMD13-2 + Olaparib; first compound 5 µM)?
A: 0.318

Q: And the relative viability (ALW-II-49-7 + Pictilisib; first compound 0.08 µM)?
A: 0.917

Q: What about the relative viability (ALW-II-49-7 + Pictilisib; first compound 0.253 µM) of the same cell line?
A: 0.807

Q: What about the relative viability (ALW-II-49-7 + Pictilisib; first compound 2.53 µM) of the same cell line?
A: 1.06

Q: And the relative viability (ALW-II-49-7 + Pictilisib; first compound 8 µM)?
A: 0.814

Q: What about the relative viability (ALW-II-49-7 + Navitoclax; first compound 0.08 µM) of the same cell line?
A: 0.311

Q: And the relative viability (ALW-II-49-7 + Navitoclax; first compound 0.253 µM)?
A: 0.345

Q: What about the relative viability (ALW-II-49-7 + Navitoclax; first compound 2.53 µM) of the same cell line?
A: 0.322

Q: What about the relative viability (ALW-II-49-7 + Navitoclax; first compound 8 µM) of the same cell line?
A: 0.335

Q: And the relative viability (Dasatinib + Luminespib; first compound 0.005 µM)?
A: 0.874

Q: What about the relative viability (Dasatinib + Luminespib; first compound 0.01581 µM) of the same cell line?
A: 0.78

Q: What about the relative viability (Dasatinib + Luminespib; first compound 0.05 µM) of the same cell line?
A: 0.607

Q: And the relative viability (Dasatinib + Luminespib; first compound 0.1581 µM)?
A: 0.316

Q: And the relative viability (Dasatinib + Luminespib; first compound 0.5 µM)?
A: 0.328
